Laboratory results from US5866537A, “Pharmaceutical and/or dietetic compositions with antioxidant activity containing carnosine or derivatives and branched amino acids” (Farmila-Farmaceutici Milano S.R.L., priority 1995, dated 1999).
Where a name gives a salt, the structure may show the parent alone.

Key:
Type in all cases: in vivo
[1] = tested on: lipoperoxides content in the liver; test: lipoperoxides content in liver (malonyldialdehyde, Yagi procedure) of rats on hyperlipidemizing and hypercholesterolemizing diet; conditions: male rats, solution as ad libitum drink; for percent variation compared with the control: liver lipoperoxides, 20 days diet; for malonyldialdehyde nmoles/g. of fresh tissue: liver, 20 days hyperlipidemizing and hypercholesterolemizing diet
Procedure: (§1) In order to study the pharmacological and/or dietetic characteristics of the compositions according to the present invention, tests were carried out to evaluate the following effects in rats subjected to an ipovitaminic, hyperlipidemizing and hypercholesterolemizing diet (which is known to be capable of promoting the tissue and plasma peroxidation processes):
2°) effect of the compositions on the lipoperoxides hepatic content (measured as malonyldialdehyde nmoles/g)
(§2) 36 Male rats weighing 180-200 g were used.
(§3) The animals were subjected for 20 days to a standard hyperlipidemizing and hypercolesterolemizing diet consisting of: 20% caseine, a 3.5% mixture of oligoelements and mineral salts, a 0.1% mixture of vitamins, 0.2% choline bitartrate, 2% cellulose powder, 0.5% chloesterol, 0.25. sodium cholate, 62.44% saccharose and 10.9% lard. During that time, the animals were divided into in 6 groups which received as an "ad libitum" available drink:
(§4) 1° group: control (only water)
(§5) 2° group: Test A (a 0.75% CARNOSINE aqueous solution)
(§6) 3° group: Test B (a 0.25% CARNITINE aqueous solution)
(§7) At end of the test the animals were killed to take both blood samples and the various organs (liver, brain, and heart) on which the lipoperoxides content was evaluated dosing malonyldialdehyde, according to the procedure by Yagi (YAGI K, (1982), in "Lipid peroxides in biology and medicine", Academic Press, New York, pp. 324-40).

[2] = tested on: lipoperoxides content in brain; test: lipoperoxides content in brain (malonyldialdehyde, Yagi procedure) of rats on hyperlipidemizing and hypercholesterolemizing diet; conditions: male rats, solution as ad libitum drink; for percent variation compared with the control: brain lipoperoxides, 20 days diet; for malonyldialdehyde nmoles/g. of fresh tissue: brain, 20 days hyperlipidemizing and hypercholesterolemizing diet
Procedure: 3°) effect of the compositions on the lipoperoxides cerebral content (measured as malonyldialdehyde nmoles/g)
as §2, §3, §4, §5, §6, §7

[3] = tested on: lipoperoxides content in the heart; test: lipoperoxides content in heart (malonyldialdehyde, Yagi procedure) of rats on hyperlipidemizing and hypercholesterolemizing diet; conditions: male rats, solution as ad libitum drink; for percent variation compared with the control: heart lipoperoxides, 20 days diet; for malonyldialdehyde nmoles/g. of fresh tissue: heart, 20 days hyperlipidemizing and hypercholesterolemizing diet
Procedure: as §1
4°) effect of the compositions on the lipoperoxides content in the heart (measured as malonyldialdehyde nmoles/g).
as §2, §3, §4, §5, §6, §7

[4] = tested on: lipoperoxides content in the plasma; test: lipoperoxides content in plasma (malonyldialdehyde, Yagi procedure) of rats on hyperlipidemizing and hypercholesterolemizing diet; conditions: male rats, solution as ad libitum drink; for percent variation compared with the control: plasma lipoperoxides, 20 days diet; for malonyldialdehyde: plasma, 20 days hyperlipidemizing and hypercholesterolemizing diet
Procedure: as §1
1°) effect of the compositions on the lipoperoxides […] content (measured as malonildialdehye nmoles/ml)
as §2, §3, §4, §5, §6, §7

Compound | percent variation compared with the control [1] | malonyldialdehyde nmoles/g. of fresh tissue [1] | percent variation compared with the control [2] | malonyldialdehyde nmoles/g. of fresh tissue [2] | percent variation compared with the control [3] | percent variation compared with the control ([3]; listed as carnosine) | malonyldialdehyde nmoles/g. of fresh tissue [3] | percent variation compared with the control [4] | malonyldialdehyde [4]
NCCC(=O)N[C@@H](Cc1c[nH]cn1)C(=O)O [Test A, β-alanyl-L-histidine] | -9.5% | 39 ± 8 nmoles/g. of fresh tissue | -12.7% | 89 ± 7 nmoles/g. of fresh tissue | -20.0% | -20% | 36 ± 7 nmoles/g. of fresh tissue | -14.2% | 3.6 ± 0.6 nmol/mL
C[N+](C)(C)CC(O)CC(=O)[O-] (centres unmarked) [Test B, 3-carboxy-2-hydroxy-N,N,N-trimethyl-1-propanamine inner salt] | +2.3% | 43 ± 6 nmoles/g. of fresh tissue | +3.9% | 106 ± 5 nmoles/g. of fresh tissue | no changes compared with the controls |  | 45 ± 4 nmoles/g. of fresh tissue | no effects | 4.2 ± 0.8 nmol/mL
